Measurements as given in ChEMBL document CHEMBL5360530, “Structure activity relationship (SAR) and anticancer activity of pyrrolidine derivatives: Recent developments and future prospects (A review)” (Eur J Med Chem, 2023).
Each block holds one compound with its values, some of them ahead of it.

Key:
[1] = test system: PC-3; test: Anticancer activity against human PC-3 cells assessed as cell death at 50 uM measured after 72 hrs by MTT assay relative to control; type: functional
[2] = test system: MDA-MB-435; test: Growth inhibition of human MDA-MB-435 cells assessed as cell growth inhibition by SRB assay; type: functional
[3] = test system: MDA-MB-435; test: Anticancer activity against human MDA-MB-435 cells assessed as cell growth inhibition by SRB assay; type: functional, cell-based
[4] = test system: MCF7; test: Anticancer activity against human MCF7 cells assessed as cell growth inhibition by SRB assay; type: functional, cell-based
[5] = test system: MCF7; test: Anticancer activity against human MCF7 cells assessed as cell growth inhibition measured after 24 hrs by MTT assay; type: functional, cell-based; conditions: MCF7, 24 h
[6] = test system: HT-29; test: Anticancer activity against human HT-29 cells assessed as cell growth inhibition measured after 24 hrs by MTT assay; type: functional, cell-based; conditions: HT-29, 24 h
[7] = test system: HepG2; test: Anticancer activity against human HepG2 cell assessed as cell growth inhibition; type: functional, cell-based
[8] = test system: HCT-116; test: Anticancer activity against human HCT-116 cell assessed as cell growth inhibition; type: functional, cell-based
[9] = test system: PC-3; test: Anticancer activity against human PC-3 cell assessed as cell growth inhibition; type: functional, cell-based
[10] = test system: MCF7; test: Anticancer activity against human MCF7 cells assessed as cell growth inhibition measured after 48 hrs by WST-1 assay; type: functional, cell-based; conditions: MCF7, 48 h
[11] = test system: K562; test: Anticancer activity against human K562 cells assessed as cell growth inhibition measured after 48 hrs by WST-1 assay; type: functional, cell-based; conditions: K562, 48 h
[12] = test system: MCF7; test: Growth inhibition of human MCF7 cells assessed as cell growth inhibition by SRB assay; type: functional
[13] = test system: HCT-116; test: Anticancer activity against human HCT-116 cells assessed as cell growth inhibition measured after 48 hrs by MTT assay; type: functional, cell-based; conditions: HCT-116, 48 h
[14] = test system: HepG2; test: Anticancer activity against human HepG2 cells assessed as cell growth inhibition measured after 48 hrs by MTT assay; type: functional, cell-based; conditions: HepG2, 48 h
[15] = test system: PC-3; test: Anticancer activity against human PC-3 cells assessed as cell growth inhibition measured after 48 hrs by MTT assay; type: functional, cell-based; conditions: PC-3, 48 h
[16] = test system: PC-3; test: Potency index, ratio of cisplatin IC50 to test compound IC50 for anticancer activity against human PC-3 cells; type: functional
[17] = test system: HepG2; test: Potency index, ratio of cisplatin IC50 to test compound IC50 for anticancer activity against human HepG2 cells; type: functional
[18] = test system: HCT-116; test: Potency index, ratio of cisplatin IC50 to test compound IC50 for anticancer activity against human HCT-116 cells; type: functional
[19] = test system: HT-29; test: Anticancer activity against human HT-29 cells assessed as cell growth inhibition measured after 48 hrs by MTT assay; type: functional, cell-based; conditions: HT-29, 48 h
[20] = test system: K562; test: Anticancer activity against human K562 cells assessed as cell growth inhibition measured after 48 hrs by MTT assay; type: functional, cell-based; conditions: K562, 48 h
[21] = test system: MCF7; test: Anticancer activity against human MCF7 cells assessed as cell growth inhibition measured after 48 hrs by MTT assay; type: functional, cell-based; conditions: MCF7, 48 h
[22] = Cytotoxicity against human Chang liver cells assessed as cell growth inhibition measured after 24 hrs by DAPI and propidium iodide staining based assay; type: toxicity

Compound: CCCC(C)c1cn(CC(=O)N2[C@@H](C(=O)OC)C[C@@H](C(=O)OC)C2(c2ccccc2)c2ccccc2)nn1 (some centres undefined)
- Activity [1]: 25%

Compound: N#CC1=C(N)OC2=C(C(=O)CO2)C12C(=O)Nc1ccccc12 (centres undefined)
- GI50 [2]: 29.9 µM
- IC50 [3]: ≥ 3.6 µM
- IC50 [4]: ≥ 53 µM

Compound: N#CC1=C(N)OC2=C(C(=O)CO2)C12C(=O)Nc1ccc(Cl)cc12 (centres undefined)
- GI50 [2]: 2.1 µM
- IC50 [3]: ≥ 3.6 µM
- IC50 [4]: ≥ 53 µM

Compound: N#CC1=C(N)OC2=C(c3ccccc3C2=O)C12C(=O)Nc1ccccc12 (centres undefined)
- IC50 [3]: ≥ 3.6 µM
- IC50 [4]: ≥ 53 µM

Compound: COC(=O)[C@H]1C[C@@H](C(=O)OC)C(c2ccccc2)(c2ccccc2)N1C(=O)Cn1cc(CCc2ccccc2)nn1
- Activity [1]: 25%

Compound: O=C(/C=C/c1ccccc1)c1ccc(OCCN2CCCC2)cc1
- GI50 [12]: < 10 µg/mL

Compound: O=C(/C=C/c1ccc(Cl)cc1)[C@H]1[C@H](c2ccc(Cl)cc2)[C@H]2CSCN2[C@]12C(=O)Nc1ccccc12
- IC50 [13]: 2.5 µM
- IC50 [14]: 1 µM
- IC50 [15]: ≥ 2.7 µM
- Ratio IC50 [16]: 1.8
- Ratio IC50 [17]: 2
- Ratio IC50 [18]: 4

Compound: O=C1/C(=C/c2cccc(F)c2)CCC[C@]12[C@@H](c1cccc(F)c1)[C@@H]1CSCN1[C@]21C(=O)Nc2ccccc21
- IC50 [10]: 15.3 µM
- IC50 [11]: 15.7 µM

Compound: COC(=O)[C@H]1C[C@@H](C(=O)OC)C(c2ccccc2)(c2ccccc2)N1C(=O)Cn1cc(CC2CCCCC2)nn1
- Activity [1]: 64%

Compound: O=C(/C=C/c1ccc(Cl)cc1Cl)[C@H]1[C@H](c2ccc(Cl)cc2Cl)[C@H]2CSCN2[C@]12C(=O)Nc1ccccc12
- IC50 [13]: 2 µM
- IC50 [14]: 1 µM
- IC50 [15]: ≥ 2.7 µM
- Ratio IC50 [16]: 1.8
- Ratio IC50 [17]: 2
- Ratio IC50 [18]: 4

Compound: COc1cccc2c1C(=O)c1c(O)c3c(c(O)c1C2=O)C[C@@](O)(C(=O)CO)C[C@@H]3O[C@H]1C[C@H](N)[C@H](O)[C@H](C)O1.Cl [DOXORUBICIN HYDROCHLORIDE]
- GI50 [12]: < 10 µg/mL

Compound: CC/C(=C(\c1ccccc1)c1ccc(OCCN(C)C)cc1)c1ccccc1 [TAMOXIFEN]
- GI50 [12]: < 10 µg/mL
- IC50 [5]: 20.2 µM
- IC50 at 24 h [22]: 46.2 µM

Continued, in another order:

- IC50 [5]: 293 µM
- IC50 [6]: 644 µM
Compound: O=C1c2ccccc2C(=O)N1/N=C/c1ccccc1

- IC50 [7]: 5.5 µM
- IC50 [8]: 7 µM
Compound: O=C(c1c[nH]c2ccccc12)[C@@H]1[C@@H](c2cccc(C(F)(F)F)c2)[C@@H]2CSCN2[C@@]12C(=O)Nc1ccccc12

- GI50 [2]: 1.8 µM
- IC50 [3]: ≥ 3.6 µM
- IC50 [4]: ≥ 53 µM
Compound: N#CC1=C(N)OC2=C(C(=O)CO2)C12C(=O)Nc1ccc(Br)cc12 (centres undefined)

- GI50 [2]: 27.3 µM
- IC50 [3]: ≥ 3.6 µM
- IC50 [4]: ≥ 53 µM
Compound: N#CC1=C(N)OC2=C(C(=O)CO2)C12C(=O)Nc1ccc(I)cc12 (centres undefined)

- IC50 [9]: 6 µM
- IC50 [7]: 5.5 µM
- IC50 [8]: 9 µM
Compound: Cc1ccc([C@@H]2[C@@H](C(=O)c3c[nH]c4ccccc34)[C@]3(C(=O)Nc4ccccc43)N3CSC[C@@H]23)cc1

- IC50 [10]: 15.3 µM
- IC50 [11]: 14.7 µM
Compound: O=C1/C(=C/c2ccc(Br)cc2)CCC[C@]12[C@@H](c1ccc(Br)cc1)[C@@H]1CSCN1[C@]21C(=O)Nc2ccccc21

- IC50 [9]: 8 µM
- IC50 [7]: 5.5 µM
- IC50 [8]: 9 µM
Compound: O=C(c1c[nH]c2ccccc12)[C@@H]1[C@@H](c2cccc(Br)c2)[C@@H]2CSCN2[C@@]12C(=O)Nc1ccccc12
- Ratio IC50 [16]: >2.9

- IC50 [19]: 0.39 µM
- IC50 [20]: 0.39 µM
- IC50 [21]: 0.39 µM
Compound: O=C1CCC(=O)N1CC(=O)N1N=C(c2ccccc2)CC1c1ccc(F)cc1 (centres undefined)

- IC50 [13]: 2.5 µM
- IC50 [14]: 1 µM
- IC50 [15]: ≥ 2.7 µM
Compound: O=C(/C=C/c1cccc([N+](=O)[O-])c1)[C@H]1[C@H](c2cccc([N+](=O)[O-])c2)[C@H]2CSCN2C12C(=O)Nc1ccccc12 (some centres undefined)
- Ratio IC50 [16]: 1.8
- Ratio IC50 [17]: 2
- Ratio IC50 [18]: 4

- IC50 [3]: ≥ 3.6 µM
- IC50 [4]: ≥ 53 µM
Compound: N#CC1=C(N)OC2=C(c3ccccc3C2=O)C12C(=O)Nc1ccc(Cl)cc12 (centres undefined)

- IC50 [5]: 293 µM
- IC50 [6]: 667 µM
Compound: CC(C)(C)c1cc(/C=N/N2C(=O)c3ccccc3C2=O)c(O)c(C(C)(C)C)c1

- IC50 [19]: 0.39 µM
- IC50 [20]: 0.39 µM
- IC50 [21]: 0.39 µM
Compound: O=C1CCC(=O)N1CC(=O)N1N=C(c2ccccc2)CC1c1ccccc1 (centres undefined)

- GI50 [12]: > 80 µg/mL
Compound: O=C(/C=C/c1ccco1)c1ccc(OCCN2CCCC2)cc1

- IC50 [19]: 40.3 µM
- IC50 [20]: 0.29 µM
- IC50 [21]: 0.07 µM
Compound: CCc1ccc(CCOc2ccc(CC3SC(=O)NC3=O)cc2)nc1 (centres undefined) [PIOGLITAZONE]
